The results in this text go back to patent US4751302A, “Indazole derivatives” (priority 1982, dated 1988).

The term inhibition in vivo denotes the share of the control response that was lost under treatment. Read a high inhibition in vivo as strong suppression. As usually defined, the LD50 is the dose expected to kill half of the subjects tested. A low value points to greater toxicity.

Data set [1] concerns Carrageenin edema in rat's paw. Description: Carrageenin Edema Test in Rat's Paw (anti-inflammatory activity, Table 1). The class given is in vivo. The conditions noted are these: 100 mg/kg oral, hydrochloride, rat. How it is done:
An anti-inflammatory activity was measured by orally administering 100 mg/kg of a hydrochloride of the indazole derivative of this invention as set forth in Table 1 to an animal in accordance with the standard method of Carrageenin Edema Test in Rat's Paw described in C. A. Winter et al., Proc. Soc. Exp. Biol. Med., 111, 544 (1962).

The nature of data set [2]: in vivo. The conditions noted are these: mouse, ip, intraperitoneal, hydrochloride, male ddy mice.

Take `CCN(CC)CCCn1nc(NCCCN2CCCCC2)c2cc(Cl)ccc21` [(96), 1-(3-Diethylaminopropyl)-3-(3-piperidinopropylamino)-5-chloroindazole]: the inhibition in vivo at 100 mg/kg in data set [1] was determined as 29%. Also, the LD50 in data set [2] came out at 243 mg/kg.
As to `CCN(CC)CCCNc1nn(CCC(C)N(C)C)c2ccc(O)cc12` (stereo not shown) [(138), 1-(3-Dimethylaminobutyl)-3-(3-diethylaminopropylamino)-5-hydroxyindazole], the inhibition in vivo at 100 mg/kg in data set [1] was found to be 29%. In data set [2], the LD50 was determined as 213 mg/kg.
On the same counts, the results for `Nc1n[nH]c2ccc(I)cc12` [(165), 3-Amino-5-iodoindazole] are 55% and 242 mg/kg.
Compound `CCN(CC)CCCNc1nn(CCCN2CCCCC2)c2ccc(Cl)cc12` [(100), 1-(3-Piperidinopropyl)-3-(3-diethylaminopropylamino)-5-chloroindazole] registered an inhibition in vivo at 100 mg/kg in data set [1] of 30%. For the same compound, in data set [2], the LD50 worked out at 281 mg/kg.
Turning to `CCN(CC)CCCNc1n[nH]c2ccc(I)cc12` [(71), 3-(3-Diethylaminopropylamino)-5-iodoindazole], the inhibition in vivo at 100 mg/kg in data set [1] worked out at 56%. In addition, in data set [2], the LD50 came out at 256 mg/kg.
The corresponding values for `CCN(CC)C(CCNc1n[nH]c2ccc(Cl)cc12)CC(C)C` (stereo not shown) [(54), 3-(3-Diethylamino-5-methylhexylamino)-5-chloroindazole] are 46% and 251 mg/kg.
The corresponding values for `CCCCN(CCCC)CCCNc1n[nH]c2ccc(O)cc12` [(74), 3-(3-Di-n-butylaminopropylamino)-5-hydroxyindazole] are 53% and 253 mg/kg.
The corresponding values for `CCN(CC)CCCNc1nn(CCCN(CC)CC)c2cccc(O)c12` [(119), 1-(3-Diethylaminopropyl)-3-(3-diethylaminopropylamino)-4-hydroxyindazole] are 29% and 271 mg/kg.
In data set [1], `Oc1ccc2[nH]nc(NCCCN3CCCCCC3)c2c1` [(85), 3-(3-Homopiperidinopropylamino)-5-hydroxyindazole] showed an inhibition in vivo at 100 mg/kg of 35%. This compound yielded an LD50 in data set [2] of 135 mg/kg.
The corresponding values for `CC1CCCC(C)N1CCCNc1n[nH]c2ccc(Cl)cc12` (stereo not shown) [(60), 3-[3-(2,6-Dimethylpiperidino)propylamino]-5-chloroindazole] are 36% and 310 mg/kg.
On the same counts, the results for `Clc1ccc2c(c1)c(NCCCCCCN1CCCCC1)nn2CCCN1CCCCC1` [(102), 1-(3-Piperidinopropyl)-3-(6-piperidinohexylamino)-5-chloroindazole] are 22% and 255 mg/kg.
On the same counts, the results for `CCN(CC)CCCNc1nn(CCCN(CC)CC)c2cc(Cl)ccc12` [(91), 1-(3-Diethylaminopropyl)-3-(6-diethylaminopropylamino)-6-chloroindazole] are 22% and 251 mg/kg.
In data set [1], `CCN(CC)CCCNc1nn(CCCN2CCOCC2)c2ccccc12` [(155), 1-(3-Morpholinopropyl)-3-(3-diethylaminopropylamino)indazole] yielded an inhibition in vivo at 100 mg/kg of 30%. The LD50 in data set [2] was 291 mg/kg.
The corresponding values for `Nc1nn(CCCCCCN2CCCCC2)c2ccc(O)cc12` [(34), 1-(6-Piperidinohexyl)-3-amino-5-hydroxyindazole] are 26% and 231 mg/kg.
The corresponding values for `Nc1n[nH]c2c(I)cccc12` [(166), 3-Amino-7-iodoindazole] are 50% and 198 mg/kg.
On the same counts, the results for `CCN(CC)C(CCNc1nn(CCC(C)N(C)C)c2ccc(O)cc12)CC(C)C` (stereo not shown) [(141), 1-(3-Dimethylaminobutyl)-3-(3-diethylamino-5-methylhexylamino)-5-hydroxyindazole] are 21% and 340 mg/kg.
For the compound `CCN(CC)CCCNc1nn(CCCN(CC)CC)c2c(O)cccc12` [(122), 1-(3-Diethylaminopropyl)-3-(3-diethylaminopropylamino)-7-hydroxyindazole], the inhibition in vivo at 100 mg/kg in data set [1] came to 31%. The same compound showed an LD50 in data set [2] of 245 mg/kg.
